Experimental data taken from patent US20240279214A1, “ALPHA4 BETA7 INEGRIN ANTAGONISTS AND USES THEREOF” (XinThera, Inc., priority 2022, published 2024).
Like-named read-outs stand apart in the source and are kept apart here.

Settings: ether bond, 13-membered ring, 100.0 °C

In the case of `CCOC(=O)C[C@@H]1NC(=O)C(n2cc(CCN3CC(F)C3)c(C(F)(F)F)cc2=O)c2cc(ccc2F)Oc2cc(C)cc(C)c2-c2cc(C)c(F)c1c2` (stereo partly shown), the ring closure, isolated yield (from CCOC(=O)C[C@H](NC(=O)C(c1cc(Br)ccc1F)n1cc(CCN2CC(F)C2)c(C(F)(F)F)cc1=O)c1cc(-c2c(C)cc(C)cc2O)cc(C)c1F, CuI/K2CO3/(1R,2R)-N1,N2-dimethylcyclohexane-1,2-diamine, dioxane, 66.0 mM, 16.0 h) is reported as 49.3%.
For `CCOC(=O)C[C@@H]1NC(=O)C(n2cc(CCN3CC(F)C3)c(C(F)(F)F)cc2=O)c2cc(ccc2F)Oc2cc(N3C4CCC3COC4)cc(C)c2-c2cc(C)c(F)c1c2` (stereo partly shown), the ring closure, isolated yield (from CCOC(=O)C[C@H](NC(=O)C(c1cc(Br)ccc1F)n1cc(CCN2CC(F)C2)c(C(F)(F)F)cc1=O)c1cc(-c2c(C)cc(N3C4CCC3COC4)cc2O)cc(C)c1F, CuI/(1R,2R)-N1,N2-dimethylcyclohexane-1,2-diamine/K2CO3, dioxane, 27.5 mM, 16.0 h) was 54.8%.
In the case of `CCOC(=O)C[C@@H]1NC(=O)C(n2cc(CCN3CC(F)C3)c(C(F)(F)F)cc2=O)c2cc(ccc2F)Oc2cc(N3CC(OC)C3)cc(C)c2-c2cc(C)c(F)c1c2` (stereo partly shown), the ring closure, isolated yield (from CCOC(=O)C[C@H](NC(=O)C(c1cc(Br)ccc1F)n1cc(CCN2CC(F)C2)c(C(F)(F)F)cc1=O)c1cc(-c2c(C)cc(N3CC(OC)C3)cc2O)cc(C)c1F, CuI/(1R,2R)-N1,N2-dimethylcyclohexane-1,2-diamine/K2CO3, 1,4-dioxane, 30.0 mM, 2.0 h) is reported as 59.2%.
Molecule `CCOC(=O)C[C@@H]1NC(=O)C(n2cc(CCN3CC(F)C3)c(C(F)(F)F)cc2=O)c2cc(ccc2F)Oc2ccc(F)cc2-c2cc(C)c(F)c1c2` (stereo partly shown) has a ring closure, isolated yield (from CCOC(=O)C[C@H](NC(=O)C(c1cc(Br)ccc1F)n1cc(CCN2CC(F)C2)c(C(F)(F)F)cc1=O)c1cc(-c2cc(F)ccc2O)cc(C)c1F, CuI/(1R,2R)-N1,N2-dimethylcyclohexane-1,2-diamine/K2CO3, dioxane, 95.0 mM, 3.0 h) of 54.4%.
Molecule `CCOC(=O)C[C@@H]1NC(=O)C(n2cc(CCN3CC(F)C3)c(C(F)(F)F)cc2=O)c2cc(ccc2F)Oc2cccc(C)c2-c2cc(C)c(F)c1c2` (stereo partly shown) has a ring closure, isolated yield (from CCOC(=O)C[C@H](NC(=O)C(c1cc(Br)ccc1F)n1cc(CCN2CC(F)C2)c(C(F)(F)F)cc1=O)c1cc(-c2c(C)cccc2O)cc(C)c1F, CuI/N1,N2-dimethylcyclohexane-1,2-diamine/K2CO3, dioxane, 18.7 mM, 16.0 h) of 72.5%.
`CCOC(=O)C[C@@H]1NC(=O)C(n2cc(CCN3CC(F)C3)c(C(F)(F)F)cc2=O)c2cc(ccc2F)Oc2cccc(C)c2-c2cc1c(C)s2` (stereo partly shown) gave a ring closure, isolated yield (from CCOC(=O)C[C@H](NC(=O)C(c1cc(Br)ccc1F)n1cc(CCN2CC(F)C2)c(C(F)(F)F)cc1=O)c1cc(-c2c(C)cccc2O)sc1C, CuI/K2CO3/(1R,2R)-N1,N2-dimethylcyclohexane-1,2-diamine, dioxane, 26.0 mM) of 55.7%.
Work on `CCOC(=O)C[C@@H]1NC(=O)C(n2cc(CCN3CC(F)C3)c(C(F)(F)F)cc2=O)c2cccc(c2)Oc2cc(C(F)(F)F)cc(C)c2-c2cc1c(F)c(C(F)(F)F)c2` (stereo partly shown) yielded a ring closure, isolated yield (from CCOC(=O)C[C@H](NC(=O)C(c1cccc(Br)c1)n1cc(CCN2CC(F)C2)c(C(F)(F)F)cc1=O)c1cc(-c2c(C)cc(C(F)(F)F)cc2O)cc(C(F)(F)F)c1F, CuI/(1R,2R)-N1,N2-dimethylcyclohexane-1,2-diamine/K2CO3, dioxane, 22.0 mM, 16.0 h) of 38.4%.
Work on `CCOC(=O)C[C@@H]1NC(=O)C(n2cc(CCN3CC(F)C3)c(C(F)(F)F)cc2=O)c2cccc(c2)Oc2cc(C)cc(C)c2-c2cc1c(F)c(C(F)(F)F)c2` (stereo partly shown) yielded a ring closure, isolated yield (from CCOC(=O)C[C@H](NC(=O)C(c1cccc(Br)c1)n1cc(CCN2CC(F)C2)c(C(F)(F)F)cc1=O)c1cc(-c2c(C)cc(C)cc2O)cc(C(F)(F)F)c1F, CuI/(1R,2R)-N1,N2-dimethylcyclohexane-1,2-diamine/K2CO3, dioxane, 28.3 mM, 16.0 h) of 66.2%.
In the case of `CCOC(=O)C[C@@H]1NC(=O)C(n2cc(CCN3CC(F)C3)c(C(F)(F)F)cc2=O)c2cccc(c2)Oc2cccc(C(F)(F)F)c2-c2cc1c(F)c(C(F)(F)F)c2` (stereo partly shown), the ring closure, isolated yield (from CCOC(=O)C[C@H](NC(=O)C(c1cccc(Br)c1)n1cc(CCN2CC(F)C2)c(C(F)(F)F)cc1=O)c1cc(-c2c(O)cccc2C(F)(F)F)cc(C(F)(F)F)c1F, CuI/N1,N2-dimethylcyclohexane-1,2-diamine/K2CO3, dioxane, 14.7 mM, 16.0 h) is reported as 46.7%.
Work on `CCOC(=O)C[C@@H]1NC(=O)C(n2cc(CCN3CC(F)C3)c(C(F)(F)F)cc2=O)c2cccc(c2)Oc2cccc(C)c2-c2cc(C3CC3)c(F)c1c2` (stereo partly shown) yielded a ring closure, isolated yield (from CCOC(=O)C[C@H](NC(=O)C(c1cccc(Br)c1)n1cc(CCN2CC(F)C2)c(C(F)(F)F)cc1=O)c1cc(-c2c(C)cccc2O)cc(C2CC2)c1F, CuI/(1R,2R)-N1,N2-dimethylcyclohexane-1,2-diamine/K2CO3, dioxane, 26.1 mM, 16.0 h) of 82.3%.
Molecule `CCOC(=O)C[C@@H]1NC(=O)C(n2cc(CCN3CC(F)C3)c(C(F)(F)F)cc2=O)c2cccc(c2)Oc2cccc(Cl)c2-c2cc1c(F)c(C(F)(F)F)c2` (stereo partly shown) has a ring closure, isolated yield (from CCOC(=O)C[C@H](NC(=O)C(c1cccc(Br)c1)n1cc(CCN2CC(F)C2)c(C(F)(F)F)cc1=O)c1cc(-c2c(O)cccc2Cl)cc(C(F)(F)F)c1F, CuI/N1,N2-dimethylcyclohexane-1,2-diamine/K2CO3, dioxane, 15.3 mM, 16.0 h) of 55.1%.
`CCOC(=O)C[C@@H]1NC(=O)C(n2cc(CCN3CC(F)C3)cc(C)c2=O)c2cc(ccc2F)Oc2cccc(C)c2-c2cc(C)c(F)c1c2` (stereo partly shown) gave a ring closure, isolated yield (from CCOC(=O)C[C@H](NC(=O)C(c1cc(Br)ccc1F)n1cc(CCN2CC(F)C2)cc(C)c1=O)c1cc(-c2c(C)cccc2O)cc(C)c1F, CuI/K2CO3/(1R,2R)-N1,N2-dimethylcyclohexane-1,2-diamine, 1,4-dioxane, 20.0 mM, 16.0 h) of 70.9%.
`CCOC(=O)C[C@@H]1NC(=O)C(n2cc(CCN3CCC(F)(F)CC3)c(C(F)(F)F)cc2=O)c2cc(ccc2F)Oc2cccc(C)c2-c2cc(C)c(F)c1c2` (stereo partly shown) showed a ring closure, isolated yield (from CCOC(=O)C[C@H](NC(=O)C(c1cc(Br)ccc1F)n1cc(CCN2CCC(F)(F)CC2)c(C(F)(F)F)cc1=O)c1cc(-c2c(C)cccc2O)cc(C)c1F, CuI/K2CO3/(1R,2R)-N1,N2-dimethylcyclohexane-1,2-diamine, 1,4-dioxane, 36.3 mM, 16.0 h) of 66.2%.
Molecule `CCOC(=O)C[C@@H]1NC(=O)C(n2cc(CCOC)c(C(F)(F)F)cc2=O)c2cc(ccc2F)Oc2cccc(C)c2-c2cc(C)c(F)c1c2` (stereo partly shown) has a ring closure, isolated yield (from CCOC(=O)C[C@H](NC(=O)C(c1cc(Br)ccc1F)n1cc(CCOC)c(C(F)(F)F)cc1=O)c1cc(-c2c(C)cccc2O)cc(C)c1F, CuI/K2CO3/(1R,2S)-N1,N2-dimethylcyclohexane-1,2-diamine, dioxane, 65.0 mM) of 27.9%.
`CCOC(=O)C[C@@H]1NC(=O)C(n2ccc(C(F)(F)F)c(CC)c2=O)c2cc(ccc2F)Oc2cccc(C)c2-c2cc(C)c(F)c1c2` (stereo partly shown) gave a ring closure, isolated yield (from CCOC(=O)C[C@H](NC(=O)C(c1cc(Br)ccc1F)n1ccc(C(F)(F)F)c(CC)c1=O)c1cc(-c2c(C)cccc2O)cc(C)c1F, CuI/(1R,2R)-N,N'-dimethylcyclohexane-1,2-diamine/K2CO3, 1,4-dioxane, 20.0 mM, 16.0 h) of 56.1%.
For `CCOC(=O)C[C@@H]1NC(=O)C(n2ccc(C(F)(F)F)c(OC)c2=O)c2cc(ccc2F)Oc2cccc(C)c2-c2cc(C)c(F)c1c2` (stereo partly shown), the ring closure, isolated yield (from CCOC(=O)C[C@H](NC(=O)C(c1cc(Br)ccc1F)n1ccc(C(F)(F)F)c(OC)c1=O)c1cc(-c2c(C)cccc2O)cc(C)c1F, CuI/(1S,2S)-N,N'-dimethylcyclohexane-1,2-diamine/K2CO3, 1,4-dioxane, 13.5 mM) was 67.3%.
`CCOC(=O)C[C@@H]1NC(=O)C(n2ccc(C(F)(F)F)cc2=O)c2cc(ccc2F)Oc2cc(OC)cc(C)c2-c2cc(C)c(F)c1c2` (stereo partly shown) gave a ring closure, isolated yield (from CCOC(=O)C[C@H](NC(=O)C(c1cc(Br)ccc1F)n1ccc(C(F)(F)F)cc1=O)c1cc(-c2c(C)cc(OC)cc2O)cc(C)c1F, CuI/K2CO3/(1R,2R)-N1,N2-dimethylcyclohexane-1,2-diamine, 1,4-dioxane, 70.0 mM, 2.0 h) of 67.3%.
With `CCOC(=O)C[C@@H]1NC(=O)C(n2ccc(C(F)(F)F)cc2=O)c2cc(ccc2F)Oc2cccc(C)c2-c2cc(C)c(F)c1c2` (stereo partly shown) the ring closure, isolated yield (from CCOC(=O)C[C@H](NC(=O)C(c1cc(Br)ccc1F)n1ccc(C(F)(F)F)cc1=O)c1cc(-c2c(C)cccc2O)cc(C)c1F, CuI/(1R,2R)-N1,N2-dimethylcyclohexane-1,2-diamine/K2CO3, 1,4-dioxane, 40.0 mM, 16.0 h) was 88.7%.
Work on `CCOC(=O)C[C@H](NC(=O)C(c1cc(Br)cc(Cl)c1F)n1cc(CCN2CC(F)C2)c(C(F)(F)F)cc1=O)c1cc(-c2c(C)cccc2O)cc(C)c1F` (stereo partly shown) yielded a ring closure, isolated yield (the molecule shown is the open-chain precursor, CuI/(1R,2R)-N1,N2-dimethylcyclohexane-1,2-diamine/K2CO3, dioxane, 46.7 mM) of 46.1%.
`CCOC(=O)C[C@H](NC(=O)C(c1cc(Br)ccc1F)n1ccc(C(F)(F)F)c(Cl)c1=O)c1cc(-c2c(C)cccc2O)cc(C)c1F` (stereo partly shown) gave a ring closure, isolated yield (the molecule shown is the open-chain precursor, CuI/K2CO3/(1R,2R)-N1,N2-dimethylcyclohexane-1,2-diamine, 1,4-dioxane, 43.3 mM) of 56.1%.
For `CCOC(=O)C[C@H](NC(=O)C(c1cc(Cl)cc(Br)c1)n1cc(CCN2CC(F)C2)c(C(F)(F)F)cc1=O)c1cc(-c2c(C)cccc2O)cc(C(F)(F)F)c1F` (stereo partly shown), the ring closure, isolated yield (the molecule shown is the open-chain precursor, CuI/(1R,2R)-N1,N2-dimethylcyclohexane-1,2-diamine/K2CO3, dioxane, 19.0 mM) was 56%.
`CCOC(=O)C[C@H](NC(=O)C(c1cc(Cl)cc(Br)c1)n1cc(CCN2CC(F)C2)c(C(F)(F)F)cc1=O)c1cc(-c2c(C)cccc2O)cc(C)c1F` (stereo partly shown) showed a ring closure, isolated yield (the molecule shown is the open-chain precursor, CuI/(1R,2R)-N1,N2-dimethylcyclohexane-1,2-diamine/K2CO3, dioxane, 15.0 mM) of 66.5%.
`CCOC(=O)C[C@H](NC(=O)C(c1cc(Cl)cc(Br)c1)n1cc(CCN2CC(F)C2)c(C(F)(F)F)cc1=O)c1cc(-c2c(O)ccc(F)c2C)cc(C)c1F` (stereo partly shown) gave a ring closure, isolated yield (the molecule shown is the open-chain precursor, CuI/(1R,2R)-N1,N2-dimethylcyclohexane-1,2-diamine/K2CO3, dioxane, 22.0 mM) of 98.3%.
`CCOC(=O)C[C@H](NC(=O)C(c1cccc(Br)c1)n1cc(Cl)c(C(F)(F)F)cc1=O)c1cc(-c2c(C)cccc2O)cc(C(F)(F)F)c1F` (stereo partly shown) showed a ring closure, isolated yield (the molecule shown is the open-chain precursor, CuI/(1R,2R)-N1,N2-dimethylcyclohexane-1,2-diamine/K2CO3, 1,4-dioxane, 23.3 mM) of 71%.
With `COC(=O)C[C@@H]1NC(=O)C(n2ccc(C(F)(F)F)cc2=O)c2cc(ccc2F)Oc2cccc(C)c2-n2cc1c(C(F)(F)F)n2` (stereo partly shown) the ring closure, isolated yield (from COC(=O)C[C@H](NC(=O)C(c1cc(Br)ccc1F)n1ccc(C(F)(F)F)cc1=O)c1cn(-c2c(C)cccc2O)nc1C(F)(F)F, CuI/(1R,2R)-N,N'-dimethylcyclohexane-1,2-diamine/K2CO3, 1,4-dioxane, 65.0 mM, 2.0 h) was 22.5%.
